Laboratory results as given in patent publication US20100267706A1, “Compounds, Compositions and Methods Comprising Pyridazine Derivatives” (Institute for OneWorld Health, priority 2009, published 2010).

test system: cholera toxin (CTX)-induced net fluid secretion in small intestine loops; test: not given; assay type: in vivo, mice (CD1 strain); settings: 4 hours

| Structure (SMILES) | closed loop % inhibition@100 μg [%] |
| --- | --- |
| O=C(c1cc(-c2cc(Cl)c(O)c(Cl)c2)nnc1OCCc1ccc(Cl)cc1)N(CCO)Cc1ccccc1 [Compound 11, N-benzyl-3-(4-chlorophenethoxy)-6-(3,5-dichloro-4-hydroxyphenyl)-N-(2-hydroxyethyl)pyridazine-4-carboxamide] | 63.2 |

target: T1, CFTR (Homo sapiens, UniProt P13569); test: T84 assay (FLIPR membrane potential, forskolin/IBMX-stimulated CFTR channel activity); assay type: cell-based; settings: Human colonic T84 cells; average of at least 2 runs unless annotated n = 1
T1 construct: host or cells: Human colonic T84 cells
Method: (§1) For example, Human colonic T84 cells can be acquired from the European Collection of Cell Cultures (ECACC) and grown in standard culture conditions as described by the supplier. On the day before assay 25,000 T84 cells per well are plated into standard black walled, clear bottom 384-well assay plates in standard growth medium consisting of DMEM:F12 with 10% FBS and incubated overnight. On the day of the assay the plates are washed using a standard assay buffer (HBSS with 10 mM Hepes) and incubated for 15 minutes in serum free cell culture medium before the addition of a commercially available membrane potential sensitive fluorescent dye (FLIPR Red membrane potential dye, Molecular Devices Corporation). T84 cells are incubated with the FLIPR Red membrane potential dye for 45 minutes in the presence and absence of test compound before being transferred to a commercially available fluorescence imaging plate reader (FLIPR384, Molecular Devices Corporation). Fluorescence levels are monitored continuously every second for 150 seconds; after an initial 10 second baseline, CFTR channel activity is stimulated through the addition of 10 μM forskolin in the presence of 100 μM of the phosphodiesterase inhibitor iso-butyl-methylxanthine (IBMX). Addition of the forskolin leads to the activation of intracellular adenylyl cylase 1, elevating cAMP levels and results in the phosphorylation and opening of CFTR anion channels. CFTR channel opening causes chloride ion efflux and subsequent depolarization of the cells, which is measured by an increase in fluorescence. CFTR inhibitor compounds prevent cell depolarization and the associated increase in fluorescence.
as §1, with “Human colonic” for “For example, Human colonic”, “T84 cells are acquired from” for “T84 cells can be acquired from”, “(ECACC) and are grown in” for “(ECACC) and grown in”

T1 sequence (P13569 whole entry): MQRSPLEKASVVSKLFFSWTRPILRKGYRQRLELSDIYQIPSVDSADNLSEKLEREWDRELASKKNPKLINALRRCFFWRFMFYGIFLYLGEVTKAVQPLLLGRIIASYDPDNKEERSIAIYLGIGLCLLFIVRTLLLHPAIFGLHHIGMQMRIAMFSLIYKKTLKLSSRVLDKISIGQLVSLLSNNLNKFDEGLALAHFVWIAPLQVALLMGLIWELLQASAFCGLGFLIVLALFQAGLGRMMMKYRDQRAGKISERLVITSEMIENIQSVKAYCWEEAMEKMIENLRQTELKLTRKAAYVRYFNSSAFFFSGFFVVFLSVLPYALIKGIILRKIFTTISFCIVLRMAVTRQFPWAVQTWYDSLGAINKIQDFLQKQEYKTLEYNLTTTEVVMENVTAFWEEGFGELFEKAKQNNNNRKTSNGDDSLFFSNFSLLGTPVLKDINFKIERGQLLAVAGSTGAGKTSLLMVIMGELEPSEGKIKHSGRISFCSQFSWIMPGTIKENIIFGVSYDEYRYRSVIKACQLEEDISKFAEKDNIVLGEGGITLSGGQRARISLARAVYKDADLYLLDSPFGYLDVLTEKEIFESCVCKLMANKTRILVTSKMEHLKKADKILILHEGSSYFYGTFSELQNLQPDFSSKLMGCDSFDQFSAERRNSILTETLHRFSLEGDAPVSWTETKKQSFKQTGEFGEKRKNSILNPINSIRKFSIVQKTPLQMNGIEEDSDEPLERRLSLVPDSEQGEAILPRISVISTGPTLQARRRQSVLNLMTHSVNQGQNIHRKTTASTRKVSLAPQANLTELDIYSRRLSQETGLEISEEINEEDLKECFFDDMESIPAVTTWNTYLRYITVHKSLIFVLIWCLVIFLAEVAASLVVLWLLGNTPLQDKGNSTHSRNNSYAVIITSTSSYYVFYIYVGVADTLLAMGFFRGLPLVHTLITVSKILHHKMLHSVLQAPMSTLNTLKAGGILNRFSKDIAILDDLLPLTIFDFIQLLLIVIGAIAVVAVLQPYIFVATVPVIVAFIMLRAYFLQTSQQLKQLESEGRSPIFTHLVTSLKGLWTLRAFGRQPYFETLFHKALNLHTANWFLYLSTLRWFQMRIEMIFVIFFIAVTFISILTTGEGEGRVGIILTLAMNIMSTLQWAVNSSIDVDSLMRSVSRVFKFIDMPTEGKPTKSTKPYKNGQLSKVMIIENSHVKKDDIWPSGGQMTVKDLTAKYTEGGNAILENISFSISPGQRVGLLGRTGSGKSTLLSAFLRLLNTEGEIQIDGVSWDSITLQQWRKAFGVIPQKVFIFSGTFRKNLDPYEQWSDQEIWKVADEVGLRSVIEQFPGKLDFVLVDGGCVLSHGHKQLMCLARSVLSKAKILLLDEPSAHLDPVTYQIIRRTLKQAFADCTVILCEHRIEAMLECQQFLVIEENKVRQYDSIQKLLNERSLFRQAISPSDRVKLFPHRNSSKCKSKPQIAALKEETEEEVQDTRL

| Structure (SMILES) | IC50 [µM] |
| --- | --- |
| O=C(c1cc(-c2cc(Cl)c(O)c(Cl)c2)nnc1OCCc1ccc(Cl)cc1)N(CCO)Cc1ccccc1 [Compound 11, N-benzyl-3-(4-chlorophenethoxy)-6-(3,5-dichloro-4-hydroxyphenyl)-N-(2-hydroxyethyl)pyridazine-4-carboxamide] | 8.26 |
| O=C(c1cc(-c2cc(Cl)c(O)c(Cl)c2)nnc1OCCc1ccc(Cl)cc1)N(CCO)Cc1cccnc1 [Compound 24, 3-(4-chlorophenethoxy)-6-(3,5-dichloro-4-hydroxyphenyl)-N-(2-hydroxyethyl)-N-(pyridin-3-ylmethyl)pyridazine-4-carboxamide] | 19.4 |
| O=C(c1cc(-c2cc(Cl)c(O)c(Cl)c2)nnc1OCCc1ccc(Cl)cc1)N(CCO)Cc1ccccn1 [Compound 25, 3-(4-chlorophenethoxy)-6-(3,5-dichloro-4-hydroxyphenyl)-N-(2-hydroxyethyl)-N-(pyridin-2-ylmethyl)pyridazine-4-carboxamide] | 14.7 |
| O=C(c1cc(-c2cc(Cl)c(O)c(Cl)c2)nnc1OCCc1ccc(Cl)cc1)N(Cc1ccccc1)CC(F)(F)F [Compound 26, N-benzyl-3-(4-chlorophenethoxy)-6-(3,5-dichloro-4-hydroxyphenyl)-N-(2,2,2-trifluoroethyl)pyridazine-4-carboxamide] | 23.5 |
| CCN(Cc1ccccc1)C(=O)c1cc(-c2cc(Cl)c(O)c(Cl)c2)nnc1OCCc1ccc(Cl)cc1 [Compound 27, N-benzyl-3-(4-chlorophenethoxy)-6-(3,5-dichloro-4-hydroxyphenyl)-N-ethylpyridazine-4-carboxamide] | 17 |
| CN(Cc1ccccc1)C(=O)c1cc(-c2cc(Cl)c(O)c(Cl)c2)nnc1OCCc1ccc(Cl)cc1 [Compound 28, N-benzyl-3-(4-chlorophenethoxy)-6-(3,5-dichloro-4-hydroxyphenyl)-N-methylpyridazine-4-carboxamide] | 10.2 |
| COCCN(Cc1ccccc1)C(=O)c1cc(-c2cc(Cl)c(O)c(Cl)c2)nnc1OCCc1ccc(Cl)cc1 [Compound 29, N-benzyl-3-(4-chlorophenethoxy)-6-(3,5-dichloro-4-hydroxyphenyl)-N-(2-methoxyethyl)pyridazine-4-carboxamide] | 8.5 |
| O=C(c1cc(-c2cc(Cl)c(O)c(Cl)c2)nnc1OCCc1ccc(Cl)cc1)N(CCO)Cc1ccc(Cl)c(Cl)c1 [Compound 30, 3-(4-chlorophenethoxy)-6-(3,5-dichloro-4-hydroxyphenyl)-N-(3,4-dichlorobenzyl)-N-(2-hydroxyethyl)pyridazine-4-carboxamide] | 19 |
| COc1ccc(CN(CCO)C(=O)c2cc(-c3cc(Cl)c(O)c(Cl)c3)nnc2OCCc2ccc(Cl)cc2)cc1 [Compound 31, 3-(4-chlorophenethoxy)-6-(3,5-dichloro-4-hydroxyphenyl)-N-(2-hydroxyethyl)-N-(4-methoxybenzyl)pyridazine-4-carboxamide] | 25.2 |
| O=C(c1cc(-c2cc(Cl)c(O)c(Cl)c2)nnc1OCCc1ccc(Cl)cc1)N(CCO)Cc1ccc2c(c1)OCO2 [Compound 32, N-(benzo[d][1,3]dioxol-5-ylmethyl)-3-(4-chlorophenethoxy)-6-(3,5-dichloro-4-hydroxyphenyl)-N-(2-hydroxyethyl)pyridazine-4-carboxamide] | 16.1 |
| COc1ccc(CN(CCO)C(=O)c2cc(-c3cc(Cl)c(O)c(Cl)c3)nnc2OCCc2ccc(Cl)cc2)cc1OC [Compound 33, 3-(4-chlorophenethoxy)-6-(3,5-dichloro-4-hydroxyphenyl)-N-(3,4-dimethoxybenzyl)-N-(2-hydroxyethyl)pyridazine-4-carboxamide] | 13.7 |
| CC(C)(C)c1ccc(CNC(=O)c2cc(-c3cc(Cl)c(O)c(Cl)c3)nnc2OCCc2ccc(Cl)cc2)cc1 [Compound 34, N-(4-tert-butylbenzyl)-3-(4-chlorophenethoxy)-6-(3,5-dichloro-4-hydroxyphenyl)pyridazine-4-carboxamide] | 20.1 |
